# Measurements from patent US20050150764A1 (priority 2001, published 2005).
# Test system: not listed separately
# Assay: logP (pH 2)
# Conditions: not given
row,logP,Compound
1,2.95,"N#Cc1cccc(C(=O)C(CCCl)n2cc(Cl)cn2)c1 (centres unmarked) [IV-1, 3′-cyano-2-(4-chloropyrazol-1-yl)-4-chlorobutyrophenone]"
2,3.09,"N#Cc1cccc(C(=O)C(Br)CCCl)c1 (centres unmarked) [Example V-1, 3′-cyano-2-bromo-4-chlorobutyrophenone]"
3,2.49,"N#Cc1cccc(C(=O)CCCCl)c1 [VI-1, 3′-cyano-4-chlorobutyrophenone]"

row,Compound,logP
1,N#Cc1cccc(C(=O)C2CCOC2=O)c1 (centres unmarked),1.48

# Same assay, conditions: intermediates of formula (VIIa), Table 6
row,Compound,logP (pH 2)
1,O=C1OCCC1C(=O)c1cccc(C(F)(F)F)c1 (centres unmarked) [VIIa-2],2.42
2,O=C1OCCC1C(=O)c1cccc(F)c1 (centres unmarked) [VIIa-3],1.77

# Test system: adult Musca domestica, strain: Reichswald (OP, SP, carbamate resistant)
# Assay: Test with flies (Musca domestica) (Example H)
# Assay type: in vivo
# Conditions: Concentration 4 μg fly; reading time not given
# Method: Test with Flies (Musca domestica)
# (§1) 20 mg of active substance are dissolved in 1 ml of dimethyl sulphoxide; lower concentrations are prepared by dilution with distilled water.
# […] After the filter disks have dried, 25 test organisms are transferred to the Petri dishes and covered.
# The activity of the active compound preparation is determined after 1, 3, 5, 24 and 48 hours. 100% means that all the flies were killed; 0% means that none of the flies was killed.
row,Compound,% Activity/Kill [%]
1,O=C(Nc1ccc(Cl)cc1)N1CCC(n2cc(Cl)cn2)C(c2cccc(C(F)(F)F)c2)=N1 (centres unmarked) [Example 2],0
2,O=C(Nc1ccc(OC(F)(F)F)cc1)N1CCC(n2cc(Cl)cn2)C(c2cccc(Cl)c2)=N1 (centres unmarked) [Example 7],0
3,O=C(Nc1ccc(OC(F)(F)F)cc1)N1CCC(n2cc(Cl)cn2)C(c2cccc(C(F)(F)F)c2)=N1 (centres unmarked) [Example 3],0
4,O=C(Nc1ccc(C(F)(F)F)cc1)N1CCC(n2cc(Cl)cn2)C(c2cccc(Cl)c2)=N1 (centres unmarked) [Example 9],0
5,O=C(Nc1ccc(OC(F)(F)F)cc1)N1CCC(n2cc(Cl)cn2)C(c2cccc(F)c2)=N1 (centres unmarked) [Example 6],0

# Same assay, conditions: Concentration 20 μg fly; reading time not given
row,Compound,% Activity/Kill [%]
1,O=C(Nc1ccc(Cl)cc1)N1CCC(n2cc(Cl)cn2)C(c2cccc(C(F)(F)F)c2)=N1 (centres unmarked) [Example 2],30
2,O=C(Nc1ccc(OC(F)(F)F)cc1)N1CCC(n2cc(Cl)cn2)C(c2cccc(Cl)c2)=N1 (centres unmarked) [Example 7],50
3,O=C(Nc1ccc(SC(F)(F)F)cc1)N1CCC(n2cc(Cl)cn2)C(c2cccc(C(F)(F)F)c2)=N1 (centres unmarked) [Example 23],0
4,O=C(Nc1ccc(OC(F)(F)F)cc1)N1CCC(n2cc(Cl)cn2)C(c2cccc(C(F)(F)F)c2)=N1 (centres unmarked) [Example 3],50
5,O=C(Nc1ccc(C(F)(F)F)cc1)N1CCC(n2cc(Cl)cn2)C(c2cccc(Cl)c2)=N1 (centres unmarked) [Example 9],85
6,O=C(Nc1ccc(OC(F)(F)F)cc1)N1CCC(n2cc(Cl)cn2)C(c2cccc(F)c2)=N1 (centres unmarked) [Example 6],50

# Same assay, conditions: Concentration 100 μg fly; reading time not stated (1, 3, 5, 24 and 48 hours in method)
row,Compound,% Activity/Kill [%]
1,O=C(Nc1ccc(Cl)cc1)N1CCC(n2cc(Cl)cn2)C(c2cccc(C(F)(F)F)c2)=N1 (centres unmarked) [Example 2],95
2,O=C(Nc1ccc(OC(F)(F)F)cc1)N1CCC(n2cc(Cl)cn2)C(c2cccc(Cl)c2)=N1 (centres unmarked) [Example 7],99
3,O=C(Nc1ccc(SC(F)(F)F)cc1)N1CCC(n2cc(Cl)cn2)C(c2cccc(C(F)(F)F)c2)=N1 (centres unmarked) [Example 23],90
4,O=C(Nc1ccc(OC(F)(F)F)cc1)N1CCC(n2cc(Cl)cn2)C(c2cccc(C(F)(F)F)c2)=N1 (centres unmarked) [Example 3],95
5,O=C(Nc1ccc(C(F)(F)F)cc1)N1CCC(n2cc(Cl)cn2)C(c2cccc(Cl)c2)=N1 (centres unmarked) [Example 9],95
6,O=C(Nc1ccc(OC(F)(F)F)cc1)N1CCC(n2cc(Cl)cn2)C(c2cccc(F)c2)=N1 (centres unmarked) [Example 6],99

# Test system: larvae of the mustard beetle (Phaedon cochleariae)
# Assay: Phaedon larvae test (Example B)
# Assay type: in vivo
# Conditions: 1000 ppm, after 7 days, cabbage leaves dipped
# Method: (§2) Phaedon larvae Test [table] To produce a suitable preparation of active compound, 1 part by weight of active compound is mixed with the stated amounts of solvent and emulsifier, and the concentrate is diluted with emulsifier-containing water to the desired concentration. Cabbage leaves (Brassica oleracea) are treated by being dipped into the preparation of active compound at the desired concentration and are populated with larvae of the mustard beetle (Phaedon cochleariae) while the leaves are still moist. After the desired period of time, the kill in % is determined. 100% means that all of the beetle larvae have been killed: 0% denotes that no beetle larvae have been killed.
row,Compound,kill [%]
1,O=C(Nc1ccc(Cl)cc1)N1CCC(n2cc(Cl)cn2)C(c2cccc(F)c2)=N1 (centres unmarked) [Example 5],100
2,O=C(Nc1ccc(Cl)cc1)N1CCC(n2cc(Cl)cn2)C(c2cccc(C(F)(F)F)c2)=N1 (centres unmarked) [Example 2],100
3,O=C(Nc1ccc(OC(F)(F)F)cc1)N1CCC(n2cc(Cl)cn2)C(c2cccc(Cl)c2)=N1 (centres unmarked) [Example 7],100
4,O=C(Nc1ccc(OC(F)(F)F)cc1)N1CCC(n2cc(Cl)cn2)C(c2cccc(C(F)(F)F)c2)=N1 (centres unmarked) [Example 3],100
5,O=C(Nc1ccc(C(F)(F)F)cc1)N1CCC(n2cc(Cl)cn2)C(c2cccc(Cl)c2)=N1 (centres unmarked) [Example 9],100
6,O=C(Nc1ccc(OC(F)(F)F)cc1)N1CCC(n2cc(Cl)cn2)C(c2cccc(F)c2)=N1 (centres unmarked) [Example 6],100

# Test system: Lucilia cuprina larvae
# Assay: Blowfly larvae test/development inhibition activity (Example I)
# Assay type: in vivo
# Conditions: Concentration 4 ppm; 100% = no flies hatched
# Method: Blowfly Larvae Test/Development Inhibition Activity
# as §1
# About 20 Lucilia cuprina larvae are introduced into a test tube containing 1 cm^3 of horse meat and 0.5 ml of the test preparation of active compound. The efficacy of the active compound preparation is determined after 24 and 48 hours. The test tubes are transferred to beakers whose bases are covered with sand. After 2 more days, the test tubes are removed and the pupae are counted.
# The activity of the active compound preparation is assessed in accordance with the number of flies which have hatched following 1.5 times the development period of an untreated control. 100% means that no flies have hatched; 0% means that all of the flies hatched normally.
row,Compound,% Activity/Kill [%]
1,O=C(Nc1ccc(Cl)cc1)N1CCC(n2cc(Cl)cn2)C(c2cccc(C(F)(F)F)c2)=N1 (centres unmarked) [Example 2],0
2,O=C(Nc1ccc(OC(F)(F)F)cc1)N1CCC(n2cc(Cl)cn2)C(c2cccc(Cl)c2)=N1 (centres unmarked) [Example 7],0
3,O=C(Nc1ccc(OC(F)(F)F)cc1)N1CCC(n2cc(Cl)cn2)C(c2cccc(C(F)(F)F)c2)=N1 (centres unmarked) [Example 3],0

# Same assay, conditions: Concentration 20 ppm; 100% = no flies hatched
row,Compound,% Activity/Kill [%]
1,O=C(Nc1ccc(Cl)cc1)N1CCC(n2cc(Cl)cn2)C(c2cccc(F)c2)=N1 (centres unmarked) [Example 5],0
2,O=C(Nc1ccc(Cl)cc1)N1CCC(n2cc(Cl)cn2)C(c2cccc(C(F)(F)F)c2)=N1 (centres unmarked) [Example 2],100
3,O=C(Nc1ccc(OC(F)(F)F)cc1)N1CCC(n2cc(Cl)cn2)C(c2cccc(Cl)c2)=N1 (centres unmarked) [Example 7],100
4,O=C(Nc1ccc(SC(F)(F)F)cc1)N1CCC(n2cc(Cl)cn2)C(c2cccc(C(F)(F)F)c2)=N1 (centres unmarked) [Example 23],0
5,O=C(Nc1ccc(OC(F)(F)F)cc1)N1CCC(n2cc(Cl)cn2)C(c2cccc(C(F)(F)F)c2)=N1 (centres unmarked) [Example 3],100
6,O=C(Nc1ccc(C(F)(F)F)cc1)N1CCC(n2cc(Cl)cn2)C(c2cccc(Cl)c2)=N1 (centres unmarked) [Example 9],0
7,O=C(Nc1ccc(OC(F)(F)F)cc1)N1CCC(n2cc(Cl)cn2)C(c2cccc(F)c2)=N1 (centres unmarked) [Example 6],0

# Same assay, conditions: Concentration 100 ppm; 100% = no flies hatched
row,Compound,% Activity/Kill [%]
1,O=C(Nc1ccc(Cl)cc1)N1CCC(n2cc(Cl)cn2)C(c2cccc(F)c2)=N1 (centres unmarked) [Example 5],100
2,O=C(Nc1ccc(Cl)cc1)N1CCC(n2cc(Cl)cn2)C(c2cccc(C(F)(F)F)c2)=N1 (centres unmarked) [Example 2],100
3,O=C(Nc1ccc(OC(F)(F)F)cc1)N1CCC(n2cc(Cl)cn2)C(c2cccc(Cl)c2)=N1 (centres unmarked) [Example 7],100
4,O=C(Nc1ccc(SC(F)(F)F)cc1)N1CCC(n2cc(Cl)cn2)C(c2cccc(C(F)(F)F)c2)=N1 (centres unmarked) [Example 23],100
5,O=C(Nc1ccc(OC(F)(F)F)cc1)N1CCC(n2cc(Cl)cn2)C(c2cccc(C(F)(F)F)c2)=N1 (centres unmarked) [Example 3],100
6,O=C(Nc1ccc(C(F)(F)F)cc1)N1CCC(n2cc(Cl)cn2)C(c2cccc(Cl)c2)=N1 (centres unmarked) [Example 9],100
7,O=C(Nc1ccc(OC(F)(F)F)cc1)N1CCC(n2cc(Cl)cn2)C(c2cccc(F)c2)=N1 (centres unmarked) [Example 6],100

# Test system: caterpillars of the army worm (Spodoptera frugiperda)
# Assay: Spodoptera frugiperda test (Example E)
# Assay type: in vivo
# Conditions: 1000 ppm, after 7 days, cabbage leaves dipped
# Method: as §2, with “Spodoptera frugiperda” for “Phaedon larvae”, “caterpillars” for “larvae”, “army worm (Spodoptera frugiperda)” for “mustard beetle (Phaedon cochleariae)”, “caterpillars” for “beetle larvae”
row,Compound,kill [%]
1,O=C(Nc1ccc(Cl)cc1)N1CCC(n2cc(Cl)cn2)C(c2cccc(F)c2)=N1 (centres unmarked) [Example 5],100
2,O=C(Nc1ccc(Cl)cc1)N1CCC(n2cc(Cl)cn2)C(c2cccc(C(F)(F)F)c2)=N1 (centres unmarked) [Example 2],100
3,O=C(Nc1ccc(OC(F)(F)F)cc1)N1CCC(n2cc(Cl)cn2)C(c2cccc(Cl)c2)=N1 (centres unmarked) [Example 7],100
4,O=C(Nc1ccc(OC(F)(F)F)cc1)N1CCC(n2cc(Cl)cn2)C(c2cccc(C(F)(F)F)c2)=N1 (centres unmarked) [Example 3],100
5,O=C(Nc1ccc(C(F)(F)F)cc1)N1CCC(n2cc(Cl)cn2)C(c2cccc(Cl)c2)=N1 (centres unmarked) [Example 9],100
6,O=C(Nc1ccc(OC(F)(F)F)cc1)N1CCC(n2cc(Cl)cn2)C(c2cccc(F)c2)=N1 (centres unmarked) [Example 6],100

# Test system: not given
# Assay: not given
# Conditions: not given
row,Compound,logP (pH 2)/ m.p. [° C.] (logP part)
1,O=C(Nc1ccc(Cl)cc1)N1CCC(n2cc(Cl)cn2)C(c2cccc(F)c2)=N1 (centres unmarked) [Example 5],4.18/213
2,O=C(Nc1ccc(Cl)cc1)N1CCC(n2cc(Cl)cn2)C(c2cccc(C(F)(F)F)c2)=N1 (centres unmarked) [Example 2],4.60/199
3,O=C(Nc1ccc(OC(F)(F)F)cc1)N1CCC(n2cc(Cl)cn2)C(c2cccc(Cl)c2)=N1 (centres unmarked) [Example 7],4.73/181
4,O=C(Nc1ccc(SC(F)(F)F)cc1)N1CCC(n2cc(Cl)cn2)C(c2cccc(C(F)(F)F)c2)=N1 (centres unmarked) [Example 23],5.21/188
5,O=C(Nc1ccc(OC(F)(F)F)cc1)N1CCC(n2cc(Cl)cn2)C(c2cccc(C(F)(F)F)c2)=N1 (centres unmarked) [Example 3],4.83/192
6,O=C(Nc1ccc(C(F)(F)F)cc1)N1CCC(n2cc(Cl)cn2)C(c2cccc(Cl)c2)=N1 (centres unmarked) [Example 9],4.69/199
7,O=C(Nc1ccc(OC(F)(F)F)cc1)N1CCC(n2cc(Cl)cn2)C(c2cccc(F)c2)=N1 (centres unmarked) [Example 6],4.43/148
